From US20070003480A1, “Liposomal composition comprising haptotactic peptides” (Hapto Biotech, Inc., priority 2002, published 2007)
Entries after “also recorded” stand apart in the source; their conditions may differ.

Assays:
human fibroblasts (HF) = assay: Uptake of FITC-labelled peptides by cells, confocal laser fluorescence microscopy; assay type: cell-based; conditions: visual score (0-4) from fluorescence micrographs; FITC-labelled ligand 100 μg/ml (40 μM), 1 h, 37° C.
Protocol: Fluorescent microscopy was carried out with Olympus or Nikon fluorescence microscopes. Confocal laser microscopy was done with a computerized Zeiss Confocal Axiomate microscope (LSM410) with multiple excitation wavelengths. Peptides were tagged with fluorescein isothiocyanate (FITC) for visualization. For examination of ^FITCpeptides uptake by human fibroblasts (HF) the cells were grown on glass coverslips to near confluence and then incubated with 100 μg/ml (40 μM) ^FITCpeptides at 37° C. After 1 h, the cells were washed and fixed in 0.5% buffered glutaraldehyde. Coverslips with the cells were placed on a microscope slide with PBS-glycerol 80% with 2% DABCO and examined. The representative fields of cells were visualized by Numarski optics and confocal scans of cell fluorescence intensity in 1 μm slices were recorded at the FITC wavelength (excitation 488 nm, emission 515 nm) and later reconstructed. Uptake of ^FITCligand by HF was scored visually (0-4). The fluorescent haptotactic peptides were clearly seen taken up by the HF cells, and the nuclei remained relatively free of ^FITCHaptide (FIGS. 1A & B). […] By contrast, the uptake of the control ^FITCCα peptide by the cells was negligible.

[1] = tested on: bovine aortic endothelial cells; assay: Haptide-mediated Doxil liposome uptake by bovine aortic endothelial cells, fluorescence microscopy; assay type: cell-based; conditions: Doxil (doxorubicin-loaded) liposomes; FIG. 5
Protocol: (§1) Human fibroblasts or bovine aortic endothelial cells were seeded and grown in CO2 incubator for 24 hours in a 4-chamber cell culture coverslip slide (source) used for microscopy. Then, they were exposed to either free ^FITCHaptide or to a ^FITCHaptotactic Peptide-Liposomal composition. Two liposome types were examined, namely liposomes composed of hydrogenated phosphatidyl serine, PEG and cholesterol, containing the fluorescent dye Rhodamine; and clinical grade liposomes containing the anti-cancer drug doxorubicin (Doxil liposomes). Both rhodamine and doxorubicin are fluorescent compounds. Thus, the liposome penetration and distribution within cells could be tracked by fluorescence microscopy or FACS. Typically, 20 μl of fluorescent Haptotactic Peptide-Liposomal composition were mixed with 180 μl PBS and added to the cell chamber. Incubation was continued for up to 1 hour at 37 or 4° C. The incubation was stopped at different time points by two subsequent washes with PBS, followed by fixation with 500 μl of 4% formaldehyde for 1 hr. The samples were then washed again with PBS. Coverslips with the fixed cells were covered by PBS-glycerol 80%, DABCO 2%, and an additional coverslip for microscopic examination.

BAEC = assay: Cell adhesion (haptotaxis) assay, Sepharose bead-bound ligand; assay type: cell-based, bovine; conditions: ligand bound to Sepharose beads
Protocol: (§2) The attachment of Sepharose beads (SB)-ligand to cells in nearly confluent cultures grown on plastic was measured as previously described (Gorodetsky R. et al. 1998. J Lab Clin Med 131, 269-280; Gorodetsky R. et al. 1999. J Invest Dermatol 112:866-872). Essentially, about 20-150 μl of suspended (50% v/v) SB-Haptide or SB-fibrinogen were added to near confluent cell cultures in 6-24 well plates and dispersed by gentle shaking for 1 min. The plates were then incubated for up to 4 days. After one day the number of SB tethered to cell layer was counted with an inverted phase or Numarsky microscopy. Typically, ˜300 SB (but not less then 200) were counted in each well, and the ratio of the number of SB attached to the cells in each well, was calculated relative to the total number of SB. At least 3 wells were measured for each variant and each experiment was repeated at least 3 times.

Human fibroblasts = assay: Haptide-mediated liposome uptake by human fibroblasts, fluorescence microscopy; assay type: cell-based; conditions: for liposome uptake into the cytoplasm of fibroblasts: rhodamine-loaded liposomes, FIG. 4
Protocol: as §1

HF = assay: Cell adhesion (haptotaxis) assay, Sepharose bead-bound ligand; assay type: cell-based, human; conditions: ligand bound to Sepharose beads
Protocol: as §2

[2] = Particle size by dynamic light scattering; assay type: physicochemical; conditions: Haptide solution 1 mg/mL, 0.45 μm filtered, 25° C., mean of three measurements
Protocol: It has been previously observed by gel filtration that haptides tend to form aggregates (Gorodetsky R, Vexler A, Shamir M, An J, Levdansky L, Shimeliovich I, Marx G. Exp Cell Res. 287:116-129 (2003). A solution of the Haptide preCγ (1 mg/mL) was passed through a 0.45 μm filter and then measured by dynamic light scattering at 25° C. The average particle size (a mean value of three measurements) was ˜145 nm (FIG. 3), showing that such particle is an aggregate of few hundreds of preCγ monomers.
Similarly, Doxil liposomes were measured and observed to have a mean diameter of 80 nm. However, when the preCγ-liposomal composition was formed, the preCγ Haptides aggregates disappeared in correlation with the liposome/Haptide weight ratio (FIG. 3). […] At a doxil/haptide weight ratio of >10^−2, the almost totally all the Haptides aggregates were solubilized within the liposomes as indicated by the disappearance of larger Haptide particles, forming the haptotactic-peptide liposomal composition.

Substance	Cell Uptake (HF) (human fibroblasts (HF))	liposome uptake into endothelial cells [1]	% Haptotaxis (BAEC, 1 day) (BAEC) [%]	concentration-dependent liposome uptake by human fibroblasts (Human fibroblasts; Doxorubicin-loaded liposomes, varying Haptide concentration, FIG. 6)	liposome uptake into the cytoplasm of fibroblasts (Human fibroblasts)	% Haptotaxis (HF, 1 day) (HF) [%]	average particle size [2] [nm]
KGSWYSMRKMSMKIRPFFPQQ (Equivalent to the c-terminus of fibrinogen beta-chain) [Cβ]	+4	facilitated liposome uptake	100	increased liposome uptake; also recorded: directly correlated to the Haptide (Cβ) concentration	facilitated liposome uptake	100	–
KTRWYSMKKTTMKIIPFNRL (Equivalent to the c-terminus of fibrinogen pre-gama chain) [preCγ]	–	facilitated liposome uptake	–	–	facilitated liposome uptake	–	~145
RGADYSLRAVRMKIRPLTVTQ (Equivalent to the c-terminus of fibrinogen alphaE chain) [CαE]	+3	efficient in enhancing doxorubicin-liposome (Doxil) uptake	75	–	Low induction	60	–
fibrinogen	+2	–	100	–	–	100	–
